Measurements from patent publication EP0961591B1, “METHOD TO ENHANCE TISSUE AC[…] RADIOLABELED COMPOUNDS” (BOARD OF SUPERVISORS OF LOUISIANA STATE UNIVERSITY AND …, priority 1997, dated 1999).
Where “and” joins values, the source holds several entries; their conditions need not be identical. Equal entries are not always repeated.

Key:
SK-R2 = assay: Peptide binding and internalization assay; design: species or system human
Description: Cell lines were obtained from the ATCC (IMR-32 and SKNSH) or from Ohio State University (Columbus, Ohio) (SK-R2). All cells lines were maintained in 5% CO2 at 37°C in media defined by the suppliers of the cell lines.
(§1) Cells were harvested, counted with a hemocytometer, and resuspended in binding buffer (Minimum Essential Medium (MEM), 10 mM Hepes, 0.01% BSA). A standard assay used 500,000 cells in 1 ml of binding buffer. Radioactive ligand alone (500,000 cpm), or in combination with at least 1,000-fold molar excess (10^-6 M) non-radioactive compound (to calculate specific binding), was added to a final volume of 1 ml. At the termination of the experiment, the incubation medium was removed, the cells were rinsed twice with Hanks balanced salt solution (HBSS), and the radioactivity in the cells determined using a gamma counter. This level of radioactivity represents total binding, which includes both membrane-bound and internalized fractions. Specific binding was determined by calculating the difference in the levels of measured radioactivity without the unlabeled competitor minus the radioactivity with the unlabeled competitor.
(§2) To differentiate between membrane and intracellular binding, cells were subsequently incubated for 10 min at 4°C with acidified HBSS (pH=4-5), rinsed in HBSS, and the radioactivity again determined using the gamma counter. Since the acid wash preferentially released the radioactive ligand from the external surface of the cell, remaining radioactivity was attributed to internalized fractions. Membrane-associated binding was then calculated as the difference between the total binding and internalized fractions.
(§3) The assay methods were as described in Example 2.

SKNSH = assay: Peptide binding and internalization assay; design: species or system human
From the text: The cells included: (1) IMR-32 (ATCC No. CCL-127), a human neuroblastoma cell line with a very high expression level of somatostatin receptors (SST), predominantly SST-2; (2) SKNSH (ATCC No. HTB-11), a human neuroblastoma bone marrow metastatic cell that lacks somatostatin receptors as defined by either a binding assay or reverse transcriptase-polymerase chain reaction (RTPCR); and (3) SK-R2, a SKNSH-derived cell line transfected with the gene for the SST-2 receptor. The IMR-32 and the SK-R2 cells express somatostatin receptors type 2 (SST-2). […] Cell lines were obtained from the ATCC (IMR-32 and SKNSH) or from Ohio State University (Columbus, Ohio) (SK-R2). All cells lines were maintained in 5% CO2 at 37°C in media defined by the suppliers of the cell lines.
as §1, §2, §3

DNA of IMR-32 cells = assay: Binding to nuclear DNA (DNA extraction, gamma counting); format: cell-based, human; conditions: for Radioligand (CPM ± SD), Non-Decay Corrected: 100 µg DNA, IMR-32 (SST-2 positive); for % Specifically Bound / CPM Specifically Bound (Difference), Non-Decay Corrected / Radioligand (CPM ± SD), Decay Corrected Values / SPM Specifically Bound (Difference), Decay Corrected Values / Radioligand + Unlabeled Ligand (CPM ± SD), Decay Corrected Values / Radioligand + Unlabeled Ligand (CPM ± SD), Non-Decay Corrected: IMR-32 DNA; for Radioligand + Unlabeled Ligand (CPM ± SD), Decay Corrected Values / Radioligand + Unlabeled Ligand (CPM ± SD), Non-Decay Corrected: + octreotide acetate
Description: (§4) Cells were removed from the culture surface using a sterile rubber policeman. The suspended cells were washed three times in cold Dulbecco's phosphate buffered saline and processed through a DNA extraction procedure according to the vendor's directions (GenomicPrep® cells and Tissue DNA Isolation Kit, Pharmacia Biotech, Piscataway, NJ). The cells were incubated in the Cell Lysis Solution of the DNA isolation kit at 37°C for 10 minutes. Next, 3 µl of the Rnase Solution was added to the cell lysate, followed by thorough mixing and incubation at 37°C for 1 hour. The samples were cooled to room temperature, and 200 µl of the Protein Precipitation Solution were added. Following vortexing, the contents of each tube were centrifuged at 14,000 x g for 1 min, and the DNA pellet was washed with 70% ethanol. Following drying the DNA was hydrated in a DNA Hydration Solution, and the concentration of DNA determined by spectrometry at 260 nm. One hundred microgram (100 µg) quantities of each treatment were transferred to radioactive counting vials, and the amount of radioactivity associated with each was measured in a Beckman 5500 gamma counter. The data, as presented in Table 6, were obtained as counts per minute (cpm). The differences between radioactivity measured in cells incubated solely with radioligand and in cells incubated with both radioligand and unlabeled ligand were statistically analyzed using ANOVA.
(§5) Additionally, the DNA from each flask was divided in half, and 1 mg of DNA from each flask was treated with proteinase-K (Lite Technologies, Gaithersburg, MD) for 1 hour at 37°C. The enzyme-treated DNA was then reprecipitated with ethanol and sodium acetate, washed with cold ethanol, and redissolved in DNA hydration solution. The concentration was determined by spectrophotometry at 260 nm. One hundred microgram (100 µg) of protease-treated DNA and an equal quantity of untreated DNA were transferred to radioactive counting vials and the amount of radioactivity measured in a Beckman 5500 gamma counter, as described above. The data, as presented in Table 7 and Figure 13, were obtained as counts per minute (cpm).

DNA of SKNSH cells = assay: as above; format: cell-based, human; conditions: for Radioligand (CPM ± SD), Non-Decay Corrected: 100 µg DNA, SKNSH (SST-2 negative); for % Specifically Bound / CPM Specifically Bound (Difference), Non-Decay Corrected / Radioligand + Unlabeled Ligand (CPM ± SD), Non-Decay Corrected: SKNSH DNA; for Radioligand + Unlabeled Ligand (CPM ± SD), Non-Decay Corrected: + octreotide acetate
Description: as §4, §5

[1] = SKR-2, competitor octreotide acetate
[2] = 100µg DNA, mean of three experiments
[3] = 100µg DNA, proteinase-K, mean of three experiments
[4] = 100µg DNA, single replicate experiments

Substance: (^111In-DTPA-D-Phe^1)-octreotide [^111In-pentetreotide]
- binding associated with the plasma membrane (SK-R2; SK-R2 cell line): 95%
- Total Binding (CPM ± SD), MEMBRANE (SK-R2; SKR-2, 1 CPM/cell): 33,655 ± 2,728 CPM
- Total Binding (CPM ± SD), TOTAL (SK-R2; SKR-2, 1 CPM/cell): 36,261 ± 2,085 CPM
- Total Binding (CPM ± SD), INTRACELLULAR (SK-R2; SKR-2, 1 CPM/cell, after acid wash): 2,607 ± 672 CPM
- Kd (SK-R2; SKR-2, Scatchard plot analysis, read-out: Kd (apparent dissociation constant)): 1 nM
- Specific Binding (CPM), INTRACELLULAR (SK-R2; [1]): 1,792 CPM
- Specific Binding (CPM), MEMBRANE (SK-R2; [1]): 33,683 CPM
- Specific Binding (CPM), TOTAL (SK-R2; [1]): 35,475 CPM
- Total Binding (CPM ± SD), MEMBRANE (SKNSH; 1 CPM/cell): 87 ± 114 CPM
- Total Binding (CPM ± SD), TOTAL (SKNSH; 1 CPM/cell): 861 ± 30 CPM
- Total Binding (CPM ± SD), INTRACELLULAR (SKNSH; 1 CPM/cell, after acid wash): 775 ± 107 CPM
- Specific Binding (CPM), INTRACELLULAR (SKNSH; competitor octreotide acetate): 0 CPM
- Specific Binding (CPM), MEMBRANE (SKNSH; competitor octreotide acetate): 0 CPM
- Radioligand (CPM ± SD), Non-Decay Corrected (DNA of IMR-32 cells; 30 mins): 128 ± 28 CPM
- Radioligand (CPM ± SD), Non-Decay Corrected (DNA of IMR-32 cells; 60 mins): 152 ± 165 CPM
- Radioligand (CPM ± SD), Non-Decay Corrected (DNA of IMR-32 cells; 180 mins): 291 ± 44 CPM
- Radioligand (CPM ± SD), Non-Decay Corrected (DNA of IMR-32 cells; 1440 mins): 264 ± 104 CPM
- Radioligand (CPM ± SD), Non-Decay Corrected (DNA of IMR-32 cells; 2880 mins): 624 ± 59 CPM
- Binding to Cellular DNA, IMR-32 CELLS Untreated (CPM), Mean + S.D. (DNA of IMR-32 cells; [2]): 12,066 ± 2273 CPM
- Binding to Cellular DNA, IMR-32 CELLS Protease Treated (CPM) (DNA of IMR-32 cells; 100µg DNA, proteinase-K 1 hour 37°C, single replicate experiments): 10,276 CPM and 9.564 CPM and 12,648 CPM
- Binding to Cellular DNA, IMR-32 CELLS Protease Treated (CPM), Mean + S.D. (DNA of IMR-32 cells; [3]): 10,829 ± 1614 CPM
- Binding to Cellular DNA, IMR-32 CELLS Untreated (CPM) (DNA of IMR-32 cells; [4]): 11,512 CPM and 10,122 CPM and 14,566 CPM
- total bound CPM removed by the protease treatment (DNA of IMR-32 cells; DNA of IMR-32 cells, proteinase-K): 10-13%
- % Specifically Bound (DNA of IMR-32 cells; 30 mins): 35%
- CPM Specifically Bound (Difference), Non-Decay Corrected (DNA of IMR-32 cells; 30 mins): 45 CPM
- Radioligand (CPM ± SD), Decay Corrected Values (DNA of IMR-32 cells; 30 mins): 128 ± 28 CPM
- SPM Specifically Bound (Difference), Decay Corrected Values (DNA of IMR-32 cells; 30 mins): 45 CPM
- % Specifically Bound (DNA of IMR-32 cells; 60 mins): 45%
- CPM Specifically Bound (Difference), Non-Decay Corrected (DNA of IMR-32 cells; 60 mins): 69 CPM
- Radioligand (CPM ± SD), Decay Corrected Values (DNA of IMR-32 cells; 60 mins): 157 ± 165 CPM
- SPM Specifically Bound (Difference), Decay Corrected Values (DNA of IMR-32 cells; 60 mins): 69 CPM
- % Specifically Bound (DNA of IMR-32 cells; 180 mins): 43%
- CPM Specifically Bound (Difference), Non-Decay Corrected (DNA of IMR-32 cells; 180 mins): 126 CPM
- Radioligand (CPM ± SD), Decay Corrected Values (DNA of IMR-32 cells; 180 mins): 291 ± 44 CPM
- SPM Specifically Bound (Difference), Decay Corrected Values (DNA of IMR-32 cells; 180 mins): 126 CPM
- % Specifically Bound (DNA of IMR-32 cells; 1440 mins): 67%
- CPM Specifically Bound (Difference), Non-Decay Corrected (DNA of IMR-32 cells; 1440 mins): 177 CPM
- Radioligand (CPM ± SD), Decay Corrected Values (DNA of IMR-32 cells; 1440 mins): 338 ± 133 CPM
- SPM Specifically Bound (Difference), Decay Corrected Values (DNA of IMR-32 cells; 1440 mins): 226 CPM
- % Specifically Bound (DNA of IMR-32 cells; 2880 mins): 67%
- CPM Specifically Bound (Difference), Non-Decay Corrected (DNA of IMR-32 cells; 2880 mins): 421 CPM
- Radioligand (CPM ± SD), Decay Corrected Values (DNA of IMR-32 cells; 2880 mins): 1023 ± 97 CPM
- SPM Specifically Bound (Difference), Decay Corrected Values (DNA of IMR-32 cells; 2880 mins): 690 CPM
- Radioligand + Unlabeled Ligand (CPM ± SD), Decay Corrected Values (DNA of IMR-32 cells; 30 mins): 83 ± 12 CPM
- Radioligand + Unlabeled Ligand (CPM ± SD), Non-Decay Corrected (DNA of IMR-32 cells; 30 mins): 83 ± 12 CPM
- Radioligand + Unlabeled Ligand (CPM ± SD), Decay Corrected Values (DNA of IMR-32 cells; 60 mins): 83 ± 1 CPM
- Radioligand + Unlabeled Ligand (CPM ± SD), Non-Decay Corrected (DNA of IMR-32 cells; 60 mins): 83 ± 1 CPM
- Radioligand + Unlabeled Ligand (CPM ± SD), Decay Corrected Values (DNA of IMR-32 cells; 180 mins): 165 ± 15 CPM
- Radioligand + Unlabeled Ligand (CPM ± SD), Non-Decay Corrected (DNA of IMR-32 cells; 180 mins): 165 ± 15 CPM
- Radioligand + Unlabeled Ligand (CPM ± SD), Decay Corrected Values (DNA of IMR-32 cells; 1440 mins): 112 ± 8 CPM
- Radioligand + Unlabeled Ligand (CPM ± SD), Non-Decay Corrected (DNA of IMR-32 cells; 1440 mins): 87 ± 6 CPM
- Radioligand + Unlabeled Ligand (CPM ± SD), Decay Corrected Values (DNA of IMR-32 cells; 2880 mins): 332 ± 33 CPM
- Radioligand + Unlabeled Ligand (CPM ± SD), Non-Decay Corrected (DNA of IMR-32 cells; 2880 mins): 203 ± 20 CPM
- Radioligand (CPM ± SD), Non-Decay Corrected (DNA of SKNSH cells; 60 minutes): 85 ± 8 CPM
- Radioligand (CPM ± SD), Non-Decay Corrected (DNA of SKNSH cells; 4320 minutes): 232 ± 10 CPM
- Radioligand (CPM ± SD), Non-Decay Corrected (DNA of SKNSH cells; […]): 87 ± 1 CPM
- Binding to Cellular DNA, SKNSH CELLS Untreated (CPM), Mean + S.D. (DNA of SKNSH cells; [2]): 285 ± 56 CPM
- Binding to Cellular DNA, SKNSH CELLS Protease Treated (CPM), Mean + S.D. (DNA of SKNSH cells; [3]): 247 ± 149 CPM
- Binding to Cellular DNA, SKNSH CELLS Untreated (CPM) (DNA of SKNSH cells; [4]): 316 CPM and 319 CPM
- % Specifically Bound (DNA of SKNSH cells; 60 minutes): 0%
- CPM Specifically Bound (Difference), Non-Decay Corrected (DNA of SKNSH cells; 60 minutes): -6 CPM
- CPM Specifically Bound (Difference), Non-Decay Corrected (DNA of SKNSH cells; 4320 minutes): +58 CPM
- Radioligand + Unlabeled Ligand (CPM ± SD), Non-Decay Corrected (DNA of SKNSH cells; 60 minutes): 91 ± 25 CPM
- Radioligand + Unlabeled Ligand (CPM ± SD), Non-Decay Corrected (DNA of SKNSH cells; 4320 minutes): 174 ± 41 CPM
- % Specifically Bound (DNA of SKNSH cells; […]): 8%
- CPM Specifically Bound (Difference), Non-Decay Corrected (DNA of SKNSH cells; […]): +7 CPM
